From patent US20250215042A1, “MANNOSE-TARGETED COMPOSITIONS” (GENEVANT SCIENCES GMBH, priority 2022, published 2025)

Key:
[1] = system: human CD14+ monocyte derived M1 macrophages; test: Binding of biotin-mannose/AF488-streptavidin complex to M1 macrophages (flow cytometry); type: cell-based; settings: for mannose ligand conjugated fluorescence (ligand binding): M1 macrophages, complex at 0.5, 0.1 and 0.02 μM, 4° C., 1.5 hours; for binding to M1 macrophages, tetra-, hexa- and octa-valent compared: FIG. 3
[2] = system: human CD14+ monocyte derived M2 macrophages; test: Binding of biotin-mannose/AF488-streptavidin complex to M2 macrophages (flow cytometry); type: cell-based; settings: FIG. 2; for mannose ligand conjugated fluorescence (ligand binding): M2 macrophages, complex at 0.5, 0.1 and 0.02 μM, 4° C., 1.5 hours
M1 macrophages = test: D-mannose competition with Cy3-tetra-mannose-siCD45 uptake in M1 macrophages; type: cell-based, human; settings: competitor 139 mM, 5 minutes before conjugate 5 μg/mL, 1 hour; FIG. 5
Description: OptiMEM containing D-mannose or D-galactose was added onto testing cells to reach the final concentration of 139 mM and incubated at 37° C. for 5 minutes. […] The cells were then washed with PBS 3 times and fixed with 4% PFA for 10 minutes at room temperature. The chambers were removed from the slides and the cells were mounted with one drop of mounting media containing DAPI staining for the nuclei. The slides were covered, sealed and analyzed under fluorescent microscope.

O=C(CCCC[C@@H]1SC[C@@H]2NC(=O)N[C@@H]21)NCCCCCCOC1O[C@H](CO)[C@@H](O)[C@H](O)[C@@H]1O (stereo partly shown) [Compound 39]
mannose ligand conjugated fluorescence (ligand binding) ([1]; FIG. 2): Dose dependent increase
mannose ligand conjugated fluorescence (ligand binding) [2]: Dose dependent increase

O=C[C@H](O)[C@@H](O)[C@@H](O)[C@H](O)CO [D-Galactose]
competitive inhibition of uptake of Cy3-tetra-mannose-siCD45 (M1 macrophages): no competitive binding effect

O=C(CC[C@H](NC(=O)CC[C@H](NC(=O)CCCC[C@@H]1SC[C@@H]2NC(=O)N[C@@H]21)C(=O)N[C@@H](CCC(=O)NCC(=O)Nc1cc(C(=O)NCCOCCOCCO[C@H]2O[C@H](CO)[C@@H](O)[C@H](O)[C@@H]2O)cc(C(=O)NCCOCCOCCO[C@H]2O[C@H](CO)[C@@H](O)[C@H](O)[C@@H]2O)c1)C(=O)NCC(=O)Nc1cc(C(=O)NCCOCCOCCO[C@H]2O[C@H](CO)[C@@H](O)[C@H](O)[C@@H]2O)cc(C(=O)NCCOCCOCCO[C@H]2O[C@H](CO)[C@@H](O)[C@H](O)[C@@H]2O)c1)C(=O)NCC(=O)Nc1cc(C(=O)NCCOCCOCCO[C@H]2O[C@H](CO)[C@@H](O)[C@H](O)[C@@H]2O)cc(C(=O)NCCOCCOCCO[C@H]2O[C@H](CO)[C@@H](O)[C@H](O)[C@@H]2O)c1)NCC(=O)Nc1cc(C(=O)NCCOCCOCCO[C@H]2O[C@H](CO)[C@@H](O)[C@H](O)[C@@H]2O)cc(C(=O)NCCOCCOCCO[C@H]2O[C@H](CO)[C@@H](O)[C@H](O)[C@@H]2O)c1 [Compound 38]
binding to M1 macrophages, tetra-, hexa- and octa-valent compared [1]: did not show additional benefit

O=C(CCC(CCC(=O)NCC(=O)Nc1cc(C(=O)NCCOCCOCCO[C@H]2O[C@H](CO)[C@@H](O)[C@H](O)[C@@H]2O)cc(C(=O)NCCOCCOCCO[C@H]2O[C@H](CO)[C@@H](O)[C@H](O)[C@@H]2O)c1)(CCC(=O)NCC(=O)Nc1cc(C(=O)NCCOCCOCCO[C@H]2O[C@H](CO)[C@@H](O)[C@H](O)[C@@H]2O)cc(C(=O)NCCOCCOCCO[C@H]2O[C@H](CO)[C@@H](O)[C@H](O)[C@@H]2O)c1)NC(=O)CCCC[C@H]1SC[C@@H]2NC(=O)N[C@@H]21)NCC(=O)Nc1cc(C(=O)NCCOCCOCCO[C@H]2O[C@H](CO)[C@@H](O)[C@H](O)[C@@H]2O)cc(C(=O)NCCOCCOCCO[C@H]2O[C@H](CO)[C@@H](O)[C@H](O)[C@@H]2O)c1 [Compound 37]
binding to M1 macrophages, tetra-, hexa- and octa-valent compared ([1]; listed as Hexavalent mannose ligand): further increased binding
binding to M1 macrophages, tetra-, hexa- and octa-valent compared ([1]; listed as hexavalent mannose): highest binding affinity to M1 macrophages

O=C[C@@H](O)[C@@H](O)[C@H](O)[C@H](O)CO [D-mannose]
competitive inhibition of uptake of Cy3-tetra-mannose-siCD45 (M1 macrophages): substantially inhibited the uptake

O=C(CCCC[C@@H]1SC[C@@H]2NC(=O)N[C@@H]21)NCC(=O)Nc1cc(C(=O)NCCOCCOCCO[C@H]2O[C@H](CO)[C@@H](O)[C@H](O)[C@@H]2O)cc(C(=O)NCCOCCOCCO[C@H]2O[C@H](CO)[C@@H](O)[C@H](O)[C@@H]2O)c1 [Compound 35]
mannose ligand conjugated fluorescence (ligand binding) ([1]; FIG. 2): Dose dependent increase
mannose ligand conjugated fluorescence (ligand binding) [2]: Dose dependent increase

O=C(CC[C@H](NC(=O)CCCC[C@H]1SC[C@H]2NC(=O)N[C@H]21)C(=O)NCC(=O)Nc1cc(C(=O)NCCOCCOCCO[C@H]2O[C@H](CO)[C@@H](O)[C@H](O)[C@@H]2O)cc(C(=O)NCCOCCOCCO[C@H]2O[C@H](CO)[C@@H](O)[C@H](O)[C@@H]2O)c1)NCC(=O)Nc1cc(C(=O)NCCOCCOCCO[C@H]2O[C@H](CO)[C@@H](O)[C@H](O)[C@@H]2O)cc(C(=O)NCCOCCOCCO[C@H]2O[C@H](CO)[C@@H](O)[C@H](O)[C@@H]2O)c1 [Compound 36]
binding affinity ranked by valency (mono-, di-, tetra-valent) ([1]; M1 cells, FIG. 2): highest binding affinity
mannose ligand conjugated fluorescence (ligand binding) ([1]; FIG. 2): Dose dependent increase
binding affinity ranked by valency (mono-, di-, tetra-valent) ([2]; M2 cells): highest binding affinity
mannose ligand conjugated fluorescence (ligand binding) [2]: Dose dependent increase
